Legend:
[1] = biological target: T1, Desulfovibrio vulgaris Hildenborough (DvH) FDH2, recombinant Strep-tag II-tagged (FDH2^Rec), large subunit DVU2482 SEQ ID NO: 31, small subunit DVU2481 SEQ ID N (Nitratidesulfovibrio vulgaris, UniProt Q728X0); assay: Inhibition of PES/DCPIP reduction by DvH-FDH2; type: biochemical; parameters: some rows (FDH2^WT, da Silva et al.) are the native enzyme; details: anaerobic and aerobic
T1 sequence (Q728X0 36-1003): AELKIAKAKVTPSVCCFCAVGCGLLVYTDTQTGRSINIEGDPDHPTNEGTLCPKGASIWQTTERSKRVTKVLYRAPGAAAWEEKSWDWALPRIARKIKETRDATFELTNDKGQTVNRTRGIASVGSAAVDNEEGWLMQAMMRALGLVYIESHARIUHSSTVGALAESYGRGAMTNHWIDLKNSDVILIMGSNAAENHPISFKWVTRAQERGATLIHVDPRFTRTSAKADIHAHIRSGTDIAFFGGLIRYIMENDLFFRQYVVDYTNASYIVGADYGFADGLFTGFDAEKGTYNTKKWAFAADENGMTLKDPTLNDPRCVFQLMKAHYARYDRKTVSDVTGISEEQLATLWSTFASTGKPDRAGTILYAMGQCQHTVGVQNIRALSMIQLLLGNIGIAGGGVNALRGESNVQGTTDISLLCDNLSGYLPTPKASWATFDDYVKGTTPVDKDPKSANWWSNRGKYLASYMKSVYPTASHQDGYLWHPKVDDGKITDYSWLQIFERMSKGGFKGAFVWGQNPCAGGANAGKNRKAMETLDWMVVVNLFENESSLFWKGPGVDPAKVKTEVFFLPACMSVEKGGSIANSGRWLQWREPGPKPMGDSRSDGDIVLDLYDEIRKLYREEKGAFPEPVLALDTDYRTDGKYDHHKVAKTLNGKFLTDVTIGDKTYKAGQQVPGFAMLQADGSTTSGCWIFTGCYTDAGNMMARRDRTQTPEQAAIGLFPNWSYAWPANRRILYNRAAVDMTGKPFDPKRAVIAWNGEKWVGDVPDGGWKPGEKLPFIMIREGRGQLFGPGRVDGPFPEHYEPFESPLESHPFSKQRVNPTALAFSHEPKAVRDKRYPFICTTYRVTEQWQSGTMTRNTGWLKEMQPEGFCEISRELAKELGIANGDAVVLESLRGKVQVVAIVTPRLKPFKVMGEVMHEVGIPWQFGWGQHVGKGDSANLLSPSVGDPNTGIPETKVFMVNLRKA
T1 sequence (Q728X1 1-260 partner): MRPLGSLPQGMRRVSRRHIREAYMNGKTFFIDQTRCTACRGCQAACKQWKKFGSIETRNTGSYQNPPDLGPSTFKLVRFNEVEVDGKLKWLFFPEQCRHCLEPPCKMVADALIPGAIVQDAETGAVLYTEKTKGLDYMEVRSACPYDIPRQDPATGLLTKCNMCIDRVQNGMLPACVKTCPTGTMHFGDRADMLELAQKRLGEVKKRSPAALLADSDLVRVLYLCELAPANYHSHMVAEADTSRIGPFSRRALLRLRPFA
Description: FIG. 22. Effect of sodium azide on PES/DCPIP reduction by DvH-FDH2. Panel (A) illustrates raw anaerobic kinetics, Panel (B) illustrates data from Panel (A) converted to reduced DCPIP concentration, Panel (C) illustrates 4-parameter sigmoidal fit of Panel (B), Panel (D) illustrates aerobic raw traces, Panel (E) illustrates data from Panel (D) converted to reduced DCPIP concentration, and Panel (F) illustrates a 4-parameter sigmoidal fit of […]. IC50 values were in the range of 0.8 mM.
FIG. 23. Effect of sodium nitrate on PES/DCPTP reduction by DvH-FDH2. Panel (A) illustrates raw anaerobic kinetics, Panel (B) illustrates data from Panel (A) converted to reduced DCPTP concentration, Panel (C) illustrates raw aerobic kinetics, and Panel (D) illustrates data from Panel (C) converted to reduced DCPTP concentration.
To test this hypothesis, activity assays were independently pursued with the PES/DCPIP pair. As has been observed for other dehydrogenases^91, PES served as an efficient electron acceptor for DvH-FDH2 (FIG. 19(A)). […]
In this dye-linked assay, PES (Em,7=+65 mV) serves as the primary electron acceptor. […] Assays were performed using a UV-2600i spectrophotometer (Shimadzu Life Sciences) equipped with T2 Peltier/stirrer accessory (Quantum) and monitored at 600 nm. […]

[2] = biological target: DvH-FDH2 (Nitratidesulfovibrio vulgaris (Desulfovibrio vulgaris Hildenborough), UniProt Q728X0); type: biochemical

O=[N+]([O-])[O-].[Na+] [nitrate, sodium nitrate]
inhibition relative to azide [1]: far less effective
Inhibition of DvH-FDH2 compared with azide [2]: far less effective

Reference: patent publication US20250357519A1, “APPLICATIONS OF O2-INSENSITIVE FORMATE DEHYDROGENASE” (UNIVERSITY OF MARYLAND, BALTIMORE, priority 2022, published 2025)
